Source: paper PMC4796321, “Type 1 diabetes vaccine candidates promote human Foxp3^+Treg induction in humanized mice” (Nature Communications, 2016)

Target: HLA-DQ8
Test: Competitive in vitro HLA-DQ8 binding assay
Parameters: species or system human
Conditions: competition with FITC-labelled GAD65 253-265 R255F peptide (10 μM), thrombin-cleaved HLA-DQ8 monomers 0.4 μM, 48 h at 37 °C; one-site competitive binding fit
Description: Competitive binding assays were carried out according to previously established procedures[30][67][68]: HLA-DQ8 monomers were kindly provided by R.A.W. from the NIH Tetramer Core Facility (Atlanta, USA). The CLIP peptide of HLA-DQ8 molecules was cleaved off by incubation with thrombin (Novagen) for 2 h (ref. [69]).
Specifically, a FITC-labelled GAD65 253-265^R255F peptide (IAFFKMFPEVKEK) was used as an indicator peptide (10 μM) for the binding reaction together with thrombin-cleaved HLA-DQ8 monomers (0.4 μM) and increasing concentrations of competitor peptides (natural insulin B:9-23, ins.mim.1,2,3,4, MP185-204). The MP185-204 peptide ([…]) was used as a positive DQ8-binding control. The indicator peptide incubated with DQ8 monomers in the absence of competitor peptide was used as positive control. For background analysis the binding reaction was performed without HLA-DQ8 monomers. The binding reaction was incubated for 48 h at 37 °C. Assays were then captured using anti-DQ antibody-coated plates (SPV-L3, Abcam, 15 μg ml^−1). Detection was performed using anti-FITC HRP (Abcam, 1:1,000) antibodies in combination with TMB substrate (BD Biosciences) and subsequent analysis with the Epoch plate reader (Biotech) at 450 and 405 nm. […]

Row | Substance | IC50
1 | ins.mim.1: novel human insulin-B-chain-10-23 mimetope with 14E, 21G and 22E | 3.2 µM
2 | ins.mim.2: insulin-B:10-23 peptide variant with 21G and 22E, previously established | 6.3 µM
